Experimental data published in article PMC8929351 (Pharmacology Research & Perspectives, 2022).
“Also recorded” adds a separate entry of the source.

Assays:
[1] = biological target: human µ receptor wild‐type (WT) (Homo sapiens, UniProt P35372); test: cell-based; assay type: cell-based
[2] = biological target: human µ receptor N40D (Homo sapiens, UniProt P35372, N40D); test: cell-based; assay type: cell-based
[3] = biological target: human µ receptor A6V (Homo sapiens, UniProt P35372, A6V); test: cell-based; assay type: cell-based
Chain of human µ receptor A6V (P35372 whole entry A6V): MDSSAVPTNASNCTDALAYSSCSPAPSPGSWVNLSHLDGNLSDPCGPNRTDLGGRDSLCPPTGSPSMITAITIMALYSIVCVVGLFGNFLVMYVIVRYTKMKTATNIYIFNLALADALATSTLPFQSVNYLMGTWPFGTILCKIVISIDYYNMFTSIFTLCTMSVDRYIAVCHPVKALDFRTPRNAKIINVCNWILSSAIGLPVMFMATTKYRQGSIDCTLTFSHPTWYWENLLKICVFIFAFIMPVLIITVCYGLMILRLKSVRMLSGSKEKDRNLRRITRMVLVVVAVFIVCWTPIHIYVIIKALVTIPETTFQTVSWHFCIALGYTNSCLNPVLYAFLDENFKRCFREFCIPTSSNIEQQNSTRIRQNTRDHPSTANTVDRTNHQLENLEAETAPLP

[4] = system: Somatostatin receptors; assay type: cell-based, Mouse; conditions: 30 µM tapentadol; SRIF 100 nM; AtT20 WT cells
[5] = biological target: T1, GIRK1/2 channel (Mus musculus, UniProt P48542+P63250); assay type: cell-based; conditions: 30 µM tapentadol, AtT20 WT cells
T1 sequence (P63250 1-501): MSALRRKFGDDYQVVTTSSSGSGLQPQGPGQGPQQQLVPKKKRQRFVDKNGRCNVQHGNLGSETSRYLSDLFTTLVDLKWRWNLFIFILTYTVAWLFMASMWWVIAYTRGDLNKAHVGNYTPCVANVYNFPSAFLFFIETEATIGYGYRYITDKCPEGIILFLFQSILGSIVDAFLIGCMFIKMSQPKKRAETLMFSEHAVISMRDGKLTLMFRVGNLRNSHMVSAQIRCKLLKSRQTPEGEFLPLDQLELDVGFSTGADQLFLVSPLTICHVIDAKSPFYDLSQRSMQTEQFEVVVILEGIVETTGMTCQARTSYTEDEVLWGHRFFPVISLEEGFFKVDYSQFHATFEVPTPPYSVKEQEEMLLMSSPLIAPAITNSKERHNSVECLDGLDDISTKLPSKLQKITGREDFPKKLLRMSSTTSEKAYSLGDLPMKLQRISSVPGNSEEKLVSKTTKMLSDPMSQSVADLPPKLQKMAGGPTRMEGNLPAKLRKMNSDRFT
T1 sequence (P48542 1-425): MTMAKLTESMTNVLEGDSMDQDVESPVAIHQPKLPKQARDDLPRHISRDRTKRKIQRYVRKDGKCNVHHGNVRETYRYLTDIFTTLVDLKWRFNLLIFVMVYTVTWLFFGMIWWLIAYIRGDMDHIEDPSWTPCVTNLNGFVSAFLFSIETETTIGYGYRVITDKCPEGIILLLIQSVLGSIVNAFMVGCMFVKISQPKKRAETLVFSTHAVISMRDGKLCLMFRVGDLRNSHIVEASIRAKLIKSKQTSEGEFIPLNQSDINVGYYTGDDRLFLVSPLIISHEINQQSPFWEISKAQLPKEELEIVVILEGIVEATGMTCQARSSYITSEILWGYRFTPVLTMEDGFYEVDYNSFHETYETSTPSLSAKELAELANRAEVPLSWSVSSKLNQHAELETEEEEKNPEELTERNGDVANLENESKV

[6] = system: rat µ receptor; conditions: cited from earlier work
[7] = system: noradrenaline transporter; conditions: read-out: EC50 to inhibit noradrenaline transporter; LC neurons; cited from earlier work
[8] = system: GIRK channels; conditions: 100 µM; cells clamped at −60 mV; cited from earlier work
[9] = tapentadol‐related fatality; cited from earlier work
[10] = system: human µ receptor; conditions: GTPγS binding; cited from earlier work
[11] = system: OPRM1 knock‐out mice; conditions: dose highly effective in wild‐type mouse; cited from earlier work
[12] = system: rat µ receptor; conditions: cited from earlier work; remark: listed apart in the source

Chain of human µ receptor wild‐type (WT) (P35372 whole entry): as the sequence (P35372 whole entry A6V) above, with V6A counted along it
Chain of human µ receptor N40D (P35372 whole entry N40D): as the sequence (P35372 whole entry A6V) above, with V6A, N40D counted along it

Q: Which “response at the highest concentration compared with plateau” value ([1]; 30 µM, undepleted conditions) does the source give for `CC[C@@H](c1cccc(O)c1)[C@@H](C)CN(C)C` [Tapentadol] here?
A: smaller response

Q: And the “Relative tau (intrinsic efficacy relative to DAMGO)” value (“Relative tau” for short) ([1]; WT, AtT20 cells, operational model, β‐CNA 100 nM 20 min, mean ± SEM)?
A: 0.05 ± 0.01

Q: And the Kd ([1]; pKA, WT, operational (functional) affinity)?
A: 3.98 µM

Q: What about the Kd [2] of the same compound?
A: 3.98 µM

Q: And the “Relative tau” value ([2]; N40D, AtT20 cells, operational model, β‐CNA 100 nM 20 min, mean ± SEM)?
A: 0.05 ± 0.02

Q: And the Kd [3]?
A: 4.47 µM

Q: And the “Relative tau” value ([3]; A6V, AtT20 cells, operational model, β‐CNA 100 nM 20 min, mean ± SEM)?
A: 0.04 ± 0.01

Q: And the “effect on response of SRIF” value [4]?
A: significant reduction; also recorded: decreased the maximal response

Q: What about the “effect on response of ML297” value [5] of the same compound?
A: significant reduction; also recorded: decreased the maximal response

Q: What about the intrinsic activity ([6]; GIRK currents, rat LC neurons) of the same compound?
A: lower intrinsic activity than morphine and oxycodone

Q: And the EC50 ([6]; read-out: EC50 to activate µ receptor, LC neurons)?
A: 1.8 µM

Q: And the EC50 [7]?
A: 2.3 µM

Q: And the “blockage of GIRK channels” value [8]?
A: no blockage of GIRK channels

Q: What about the serum concentration [9] of the same compound?
A: 3.5 to 25 µM

Q: And the in vitro efficacy [10]?
A: same efficacy as morphine

Q: What about the analgesic effect [11] of the same compound?
A: reduced yet significant analgesia

Q: What does the source list for `COc1ccc2c3c1O[C@H]1C(=O)CC[C@@]4(O)[C@@H](C2)N(C)CC[C@]314` [Oxycodone]?
A: Operational tau [1]: 13.9 ± 2; Operational tau [12]: 5.1 ± 0.2

Q: Which “effect to activate the GIRK channel in variants compared to WT” value [1] does the source give for `C[C@@H](NC(=O)[C@@H](N)Cc1ccc(O)cc1)C(=O)NCC(=O)N(C)[C@@H](Cc1ccccc1)C(=O)NCCO` [DAMGO, Tyr‐D‐Ala‐Gly‐N‐MePhe‐Gly‐ol acetate] here?
A: not different

Q: What about the Operational tau [12] of the same compound?
A: 28.5 ± 1.1
